Earlier results in patent publication US20110208161A1, “INT[…] […] TO THE CENTRAL NERVOUS SYSTEM” (priority 2009, published 2011).
Where a SMILES comes first, the peptide text is derived from it.

Molecular target: T1, μ receptor (Oryctolagus cuniculus, UniProt G1TAQ8)
T1 construct: host or cells: brain tissue at the fourth ventricle, in vivo
Conditions: infusion into the fourth ventricle

T1 sequence (G1TAQ8 1-401): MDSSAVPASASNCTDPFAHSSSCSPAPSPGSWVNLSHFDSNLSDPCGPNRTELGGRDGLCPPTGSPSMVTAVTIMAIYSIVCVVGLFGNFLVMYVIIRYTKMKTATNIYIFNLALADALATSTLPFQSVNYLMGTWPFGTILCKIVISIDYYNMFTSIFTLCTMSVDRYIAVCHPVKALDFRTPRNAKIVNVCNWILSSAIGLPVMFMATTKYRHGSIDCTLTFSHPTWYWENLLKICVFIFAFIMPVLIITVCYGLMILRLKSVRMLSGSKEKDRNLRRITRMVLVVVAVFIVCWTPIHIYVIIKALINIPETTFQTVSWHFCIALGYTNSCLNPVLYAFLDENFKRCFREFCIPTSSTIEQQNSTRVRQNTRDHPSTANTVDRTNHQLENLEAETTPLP

## NC(=O)[C@@H]1CCCN1C(=O)[C@H](Cc1ccccc1)NC(=O)[C@@H]1CCCN1C(=O)[C@@H](N)Cc1ccc(O)cc1 [morphiceptin] (H-YPFP-NH2)
  effect on spinal cord nociceptive transmission: attenuate spinal cord nociceptive transmission
